Laboratory results from ChEMBL document CHEMBL1144340, “QSAR for phospholipase A2 inhibitions by 1-acyloxy-3-N-n-octylcarbamyl-benzenes” (Bioorg Med Chem Lett, 2005).
pKi: −log10 of the molar value.

molecular target: T1, Acidic phospholipase A2 CM-I (Naja mossambica, UniProt P00602); test: Inhibitory activity against phospholipase A2
T1 sequence (P00602 whole entry): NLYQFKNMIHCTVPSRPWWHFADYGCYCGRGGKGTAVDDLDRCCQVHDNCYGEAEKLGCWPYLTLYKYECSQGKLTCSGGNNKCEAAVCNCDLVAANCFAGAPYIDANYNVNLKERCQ

Compound | pKi
CCCCCCCCNC(=O)Oc1cccc(OC(=O)CCCC)c1 | 4.12
CCCCCCCCNC(=O)Oc1cccc(OC(=O)C(c2ccccc2)(c2ccccc2)c2ccccc2)c1 | 4.42
CCCCCCCCNC(=O)Oc1cccc(OC(C)=O)c1 | 4.01
CCCCCCCCNC(=O)Oc1cccc(OC(=O)C(C)(C)C)c1 | 4.26
CCCCCCCCNC(=O)Oc1cccc(OC(=O)Cc2ccccc2)c1 | 4.14
CCCCCCCCNC(=O)Oc1cccc(OC(=O)c2ccccc2)c1 | 4.02
CCCCCCCCNC(=O)Oc1cccc(OC(=O)C(Cl)(Cl)Cl)c1 | 3.92
CCCCCCCCCCCCCCCC(=O)Oc1cccc(OC(=O)NCCCCCCCC)c1 | 5.02
CCCCCCCCNC(=O)Oc1cccc(OC(=O)CCCCCCC)c1 | 4.57
